Experimental data from patent US20160223554A1, “METHODS FOR DIAGNOSIS, PROGNOSIS AND METHODS OF TREATMENT” (priority 2011, published 2016).

Key:
AML blasts [1] = test: SCNP phospho-flow signaling nodes in AML PBMC (Example 2, Study No. 1); type: cell-based, human; conditions: for Mean Value of CRs: CR patients; for Mean Value of CRs / Mean Value of NRs: Study No. 1; for Mean Value of NRs: NR patients
Experimental: Frozen cells are thawed in a 37° C. water bath and gently resuspended in the vial and transferred to the 15 mL conical tube. The 15 mL tube is centrifuged at 930 RPM (200×g) for 8 minutes at room temperature. The supernatant is aspirated and the pellet is gently resuspended in 1 mL media A. The cell suspension is filtered through a 70 um cell strainer into a new 15 mL tube. The cell strainer is rinsed with 1 mL media A and another 12 ml of media A into the 15 mL tube. The cells are mixed into an even suspension. A 20 μL aliquot is immediately removed into a 96-well plate containing 180 μL PBS+4% FBS+CD45 Alexa 700+PI to determine cell count and viability post spin. After the determination, the 15 mL tubes are centrifuged at 930 RPM (200×g) for 8 minutes at room temperature. The supernatant is aspirated and the cell pellet is gently resuspended in 4 mL PBS+4 μL Amine Aqua and incubated for 15 min in a 37° C. incubator. 10 mL RPMI+1% FBS is added to the cell suspension and the tube is inverted to mix the cells. The 15 mL tubes are centrifuged at 930 RPM (200×g) for 8 minutes at room temperature. The cells are resuspended in Media A at the desired cell concentration (1.25×10^6/mL). For samples with low numbers of cells (<18.5×10^6), the cells are resuspended in up to 15 mL media. For samples with high numbers of cells (>18.5×10^6), the volume is raised to 10 mL with media A and the desired volume is transferred to a new 15 mL tube, and the cell concentration is adjusted to 1.25×10^6 cells/ml. 1.6 mL of the above cell suspension (concentration at 1.25×10^6 cells/ml) is transferred into wells of a multi-well plate. From this plate, 80 ul is dispensed into each well of a subsequent plate. The plates are covered with a lid (Nunc) and placed in a 37° C. incubator for 2 hours to rest.
A concentration for each stimulant that is five folds more (5×) than the final concentration is prepared using Media A as diluent. 5× stimuli are arrayed into wells of a standard 96 well v-bottom plate that correspond to the wells on the plate with cells to be stimulated.
Adding the stimulant: The cell plate(s) are taken out of the incubator and placed in a 37° C. water bath next to the pipette apparatus. The cell plate is taken from the water bath and gently swirled to resuspend any settled cells. With pipettor, the stimulant is dispensed into the cell plate and vortexed at “7” for 5 seconds. The deep well plate is put back into the water bath.
The plate is covered with foil sealer and incubated in a 37° C. water bath for 10 minutes. The plate is spun for 6 minutes at 2000 rpm at room temperature. The cells are aspirated using a 96 well plate aspirator (VP Scientific). The plate is vortexed to resuspend cell pellets in the residual volume. The pellet is ensured to be dispersed before the Methanol step (see cell permeabilization) or clumping will occur.
Cell Permeabilization: Permeability agent, for example methanol, is added slowly and while the plate is vortexing. To do this, the cell plate is placed on titer plate shaker and made sure it is secure. The plate is set to shake using the highest setting. A pipetter is used to add 0.6 mls of 100% methanol to the plate wells. The plate(s) are put on ice until this step has been completed for all plates. Plates are covered with a foil seal using the plate roller to achieve a tight fit. At this stage the plates can be stored at −80° C.
Cells are thawed if frozen. Cells are pelleted at 2000 rpm 5 minutes. Supernatant is aspirated with vacuum aspirator. Plate is vortexed on a “plate vortex” for 5-10 seconds. Cells are washed with 1 mL FACS buffer. Repeat the spin, aspirate and vortex steps as above. 50 μL of FACS/stain buffer with the desired, previously optimized, antibody cocktail is added to two rows of cells at a time and agitate the plate. The plate is covered and incubated in a shaker for 30 minutes at room temperature (RT). During this incubation, the compensation plate is prepared.

AML blasts [2] = test: SCNP signaling and apoptosis nodes in AML BMMC (Example 4, Study No. 2); type: cell-based, human
[3] = Total Phospho metric, Study No. 1, CRp patient included in NR group
[4] = read-out p-Stat1, metric TotalPhospho
[5] = read-out p-Stat3, metric TotalPhospho
[6] = Fold metric, all patients, Study No. 2
[7] = Study No.2, patients less than 60 years old
[8] = Study No.2, patients with De Novo AML
[9] = Fold metric, Study No. 1, CRp patient included in NR group
[10] = read-out p-CREB, metric TotalPhospho
[11] = read-out p-S6, metric TotalPhospho
[12] = read-out p-Plcγ2, metric TotalPhospho
[13] = read-out p-Erk, metric TotalPhospho

In the case of IL-10: cytokine modulator, the “Mean Value of CRs, p-Stat3” value (AML blasts [1]; [3]) is reported as 0.72, the “Mean Value of NRs, p-Stat3” value (AML blasts [1]; [3]) is reported as 1.69 and the “Mean Value of CRs” value (AML blasts [1]; [4]) is reported as 0.20. The “Mean Value of NRs” value (AML blasts [1]; [4]) was 0.47, the “Mean Value of CRs” value (AML blasts [1]; [5]) was 0.82 and the “Mean Value of NRs” value (AML blasts [1]; [5]) was 1.69. The “Mean Value of CRs, p-Stat3” value (AML blasts [2]; [6]) was 0.08, the “Mean Value of CRs, p-Stat5” value (AML blasts [2]; [6]) was 0.09 and the “Mean Value of NRs, p-Stat3” value (AML blasts [2]; [6]) was 0.39. For the same molecule, the “Mean Value of NRs, p-Stat5” value (AML blasts [2]; [6]) was 0.43, the “Mean Value of CRs, p-Stat3 TotalPhospho” value (AML blasts [2]; [7]) was 1.67 and the “Mean Value of NRs, p-Stat3 TotalPhospho” value (AML blasts [2]; [7]) was 2.90. For the same molecule, the “Mean Value of CRs, p-Stat3 Fold” value (AML blasts [2]; [8]) was 0.05, the “Mean Value of CRs, p-Stat3 TotalPhospho” value (AML blasts [2]; [8]) was 1.63 and the “Mean Value of CRs, p-Stat5 Fold” value (AML blasts [2]; [8]) was 0.0. The “Mean Value of NRs, p-Stat3 Fold” value (AML blasts [2]; [8]) was 0.45, the “Mean Value of NRs, p-Stat3 TotalPhospho” value (AML blasts [2]; [8]) was 2.68 and the “Mean Value of NRs, p-Stat5 Fold” value (AML blasts [2]; [8]) was 0.43.

For `C/C=C(/C)C(=O)O[C@H]1C(C)=C2[C@H]([C@@H]1OC(=O)CCCCCCC)[C@@](C)(OC(C)=O)C[C@H](OC(=O)CCC)[C@@]1(O)[C@H]2OC(=O)[C@@]1(C)O` [Thapsigargin, reference compound], the “Mean Value of CRs, p-S6” value (AML blasts [1]; [9]) was 0.03, the “Mean Value of NRs, p-S6” value (AML blasts [1]; [9]) was 0.31 and the “Mean Value of CRs, p-CREB” value (AML blasts [1]; [3]) was 1.79. The “Mean Value of CRs, p-S6” value (AML blasts [1]; [3]) was 0.31, the “Mean Value of NRs, p-CREB” value (AML blasts [1]; [3]) was 2.77 and the “Mean Value of NRs, p-S6” value (AML blasts [1]; [3]) was 0.67. For the same molecule, the “Mean Value of CRs” value (AML blasts [1]; [10]) was 1.90, the “Mean Value of NRs” value (AML blasts [1]; [10]) was 2.76 and the “Mean Value of CRs” value (AML blasts [1]; read-out p-S6, metric Fold) was 0.04. The “Mean Value of NRs” value (AML blasts [1]; read-out p-S6, metric Fold) was 0.32, the “Mean Value of CRs” value (AML blasts [1]; [11]) was 0.31 and the “Mean Value of NRs” value (AML blasts [1]; [11]) was 0.68. The “Mean Value of CRs, p-Erk” value (AML blasts [2]; [6]) was 1.22, the “Mean Value of NRs, p-Erk” value (AML blasts [2]; [6]) was 0.36 and the “Mean Value of CRs, p-CREB TotalPhospho” value (AML blasts [2]; [7]) was 2.83. The “Mean Value of CRs, p-Erk Fold” value (AML blasts [2]; [7]) was 1.28, the “Mean Value of NRs, p-CREB TotalPhospho” value (AML blasts [2]; [7]) was 3.71 and the “Mean Value of NRs, p-Erk Fold” value (AML blasts [2]; [7]) was 0.40. For the same molecule, the “Mean Value of CRs, p-Erk Fold” value (AML blasts [2]; [8]) was 1.28 and the “Mean Value of NRs, p-Erk Fold” value (AML blasts [2]; [8]) was 0.27.

In the case of IGF-1, the “Mean Value of CRs, p-CREB Alexa488” value (AML blasts [1]; [3]) is reported as 1.11, the “Mean Value of CRs, p-CREB PE” value (AML blasts [1]; [3]) is reported as 1.42 and the “Mean Value of CRs, p-Plcγ2” value (AML blasts [1]; [3]) is reported as 1.82. The “Mean Value of NRs, p-CREB Alexa488” value (AML blasts [1]; [3]) was 1.62, the “Mean Value of NRs, p-CREB PE” value (AML blasts [1]; [3]) was 2.29 and the “Mean Value of NRs, p-Plcγ2” value (AML blasts [1]; [3]) was 2.76. For the same molecule, the “Mean Value of CRs” value (AML blasts [1]; [10]) was 1.52, the “Mean Value of NRs” value (AML blasts [1]; [10]) was 2.29 and the “Mean Value of CRs” value (AML blasts [1]; [12]) was 1.91. For the same molecule, the “Mean Value of NRs” value (AML blasts [1]; [12]) was 2.76.

In the case of TNFα, the “Mean Value of CRs” value (AML blasts [1]; [13]) is reported as 1.25 and the “Mean Value of NRs” value (AML blasts [1]; [13]) is reported as 1.65.

B1: CD40L (protein, UniProt P29965 113-261, looked up)
CD40 ligand, soluble form: MQKGDQNPQIAAHVISEASSKTTSVLQWAEKGYYTMSNNLVTLENGKQLTVKRQGLYYIYAQVTFCSNREASSQAPFIASLCLKSPGRFERILLRAANTHSSAKPCGQQSIHLGGVFELQPGASVFVNVTDPSQVSHGTGFTSFGLLKL
B1 was tested, and the “Mean Value of CRs, p-CREB” value (AML blasts [1]; [3]) was 1.37, the “Mean Value of CRs, p-Erk” value (AML blasts [1]; [3]) was 1.18 and the “Mean Value of NRs, p-CREB” value (AML blasts [1]; [3]) was 2.67. The “Mean Value of NRs, p-Erk” value (AML blasts [1]; [3]) was 1.62, the “Mean Value of CRs” value (AML blasts [1]; [10]) was 1.55 and the “Mean Value of NRs” value (AML blasts [1]; [10]) was 2.66. For the same molecule, the “Mean Value of CRs” value (AML blasts [1]; [13]) was 1.18 and the “Mean Value of NRs” value (AML blasts [1]; [13]) was 1.64.

B2: M-CSF (protein, UniProt P09603 33-554, looked up)
Macrophage colony-stimulating …: EEVSEYCSHMIGSGHLQSLQRLIDSQMETSCQITFEFVDQEQLKDPVCYLKKAFLLVQDIMEDTMRFRDNTPNAIAIVQLQELSLRLKSCFTKDYEEHDKACVRTFYETPLQLLEKVKNVFNETKNLLDKDWNIFSKNCNNSFAECSSQDVVTKPDCNCLYPKAIPSSDPASVSPHQPLAPSMAPVAGLTWEDSEGTEGSSLLPGEQPLHTVDPGSAKQRPPRSTCQSFEPPETPVVKDSTIGGSPQPRPSVGAFNPGMEDILDSAMGTNWVPEEASGEASEIPVPQGTELSPSRPGGGSMQTEPARPSNFLSASSPLPASAKGQQPADVTGTALPRVGPVRPTGQDWNHTPQKTDHPSALLRDPPEPGSPRISSLRPQGLSNPSTLSAQPQLSRSHSSGSVLPLGELEGRRSTRDRRSPAEPEGGPASEGAARPLPRFNSVPLTDTGHERQSEGSFSPQLQESVFHLLVPSVILVLLAVGGLLFYRWRRRSHQEPQRADSPLEQPEGSPLTQDDRQVELPV
With B2 the “Mean Value of CRs, p-Akt” value (AML blasts [1]; [9]) was −0.16, the “Mean Value of NRs, p-Akt” value (AML blasts [1]; [9]) was 0.05 and the “Mean Value of CRs, p-CREB” value (AML blasts [1]; [3]) was 1.26. For the same molecule, the “Mean Value of CRs, p-Plcγ2” value (AML blasts [1]; [3]) was 1.79, the “Mean Value of NRs, p-CREB” value (AML blasts [1]; [3]) was 1.76 and the “Mean Value of NRs, p-Plcγ2” value (AML blasts [1]; [3]) was 2.8. The “Mean Value of CRs” value (AML blasts [1]; [12]) was 1.86 and the “Mean Value of NRs” value (AML blasts [1]; [12]) was 2.81.
